Tests used:
Type in all cases: functional
[1] = test system: KM12; assay: Cytotoxicity against Homo sapiens (human) KM12 cells assessed as growth inhibition at 10 uM after 48 hr by coulter counter analysis; conditions: KM12, 48 h, read-out: GI
[2] = test system: MDA-MB-231; assay: Cytotoxicity against Homo sapiens (human) MDA-MB-231 cells assessed as growth inhibition at 10 uM after 48 hr by coulter counter analysis; conditions: MDA-MB-231, 48 h, read-out: GI
[3] = test system: RXF 393; assay: Cytotoxicity against Homo sapiens (human) RXF393 cells assessed as growth inhibition at 10 uM after 48 hr by coulter counter analysis; conditions: RXF 393, 48 h, read-out: GI
[4] = test system: EKVX; assay: Cytotoxicity against Homo sapiens (human) EKVX cells assessed as growth inhibition at 10 uM after 48 hr by coulter counter analysis; conditions: read-out: GI
[5] = test system: OVCAR-3; assay: Cytotoxicity against Homo sapiens (human) OVCAR3 cells assessed as growth inhibition at 10 uM after 48 hr by coulter counter analysis; conditions: OVCAR-3, 48 h, read-out: GI
[6] = test system: SNB-19; assay: Cytotoxicity against Homo sapiens (human) SNB19 cells assessed as growth inhibition at 10 uM after 48 hr by coulter counter analysis; conditions: SNB-19, 48 h, read-out: GI
[7] = test system: SR; assay: Cytotoxicity against Homo sapiens (human) SR cells assessed as growth inhibition at 10 uM after 48 hr by coulter counter analysis; conditions: read-out: GI
[8] = test system: SNB-75; assay: Cytotoxicity against Homo sapiens (human) SNB75 cells assessed as growth inhibition at 10 uM after 48 hr by coulter counter analysis; conditions: SNB-75, 48 h, read-out: GI
[9] = test system: SK-MEL-5; assay: Cytotoxicity against Homo sapiens (human) SK-MEL-5 cells assessed as growth inhibition at 10 uM after 48 hr by coulter counter analysis; conditions: SK-MEL-5, 48 h, read-out: GI
[10] = test system: HCT-116; assay: Cytotoxicity against Homo sapiens (human) HCT116 cells assessed as growth inhibition at 10 uM after 48 hr by coulter counter analysis; conditions: HCT-116, 48 h, read-out: GI
[11] = test system: OVCAR-8; assay: Cytotoxicity against Homo sapiens (human) OVCAR8 cells assessed as growth inhibition at 10 uM after 48 hr by coulter counter analysis; conditions: OVCAR-8, 48 h, read-out: GI
[12] = test system: MOLT-4; assay: Cytotoxicity against Homo sapiens (human) MOLT4 cells assessed as growth inhibition at 10 uM after 48 hr by coulter counter analysis; conditions: MOLT-4, 48 h, read-out: GI
[13] = test system: SN12C; assay: Cytotoxicity against Homo sapiens (human) SN12C cells assessed as growth inhibition at 10 uM after 48 hr by coulter counter analysis; conditions: read-out: GI
[14] = test system: HCT-15; assay: Cytotoxicity against Homo sapiens (human) HCT15 cells assessed as growth inhibition at 10 uM after 48 hr by coulter counter analysis; conditions: HCT-15, 48 h, read-out: GI
[15] = test system: Hs-578T; assay: Cytotoxicity against Homo sapiens (human) Hs578T cells assessed as growth inhibition at 10 uM after 48 hr by coulter counter analysis; conditions: read-out: GI
[16] = test system: SF-268; assay: Cytotoxicity against Homo sapiens (human) SF268 cells assessed as growth inhibition at 10 uM after 48 hr by coulter counter analysis; conditions: SF-268, 48 h, read-out: GI
[17] = test system: UO-31; assay: Cytotoxicity against Homo sapiens (human) UO31 cells assessed as growth inhibition at 10 uM after 48 hr by coulter counter analysis; conditions: UO-31, 48 h, read-out: GI
[18] = test system: K562; assay: Cytotoxicity against Homo sapiens (human) K562 cells assessed as growth inhibition at 10 uM after 48 hr by coulter counter analysis; conditions: K562, 48 h, read-out: GI
[19] = test system: PC-3; assay: Cytotoxicity against Homo sapiens (human) PC3 cells assessed as growth inhibition at 10 uM after 48 hr by coulter counter analysis; conditions: PC-3, 48 h, read-out: GI
[20] = test system: SW-620; assay: Cytotoxicity against Homo sapiens (human) SW620 cells assessed as growth inhibition at 10 uM after 48 hr by coulter counter analysis; conditions: SW-620, 48 h, read-out: GI
[21] = test system: HCC 2998; assay: Cytotoxicity against Homo sapiens (human) HCC2998 cells assessed as growth inhibition at 10 uM after 48 hr by coulter counter analysis; conditions: HCC 2998, 48 h, read-out: GI
[22] = test system: 786-0; assay: Cytotoxicity against Homo sapiens (human) 786-0 cells assessed as growth inhibition at 10 uM after 48 hr by coulter counter analysis; conditions: 786-0, 48 h, read-out: GI
[23] = test system: T47D; assay: Cytotoxicity against Homo sapiens (human) T47D cells assessed as growth inhibition at 10 uM after 48 hr by coulter counter analysis; conditions: read-out: GI
[24] = test system: COLO 205; assay: Cytotoxicity against Homo sapiens (human) COLO205 cells assessed as growth inhibition at 10 uM after 48 hr by coulter counter analysis; conditions: COLO 205, 48 h, read-out: GI
[25] = test system: SF-539; assay: Cytotoxicity against Homo sapiens (human) SF539 cells assessed as growth inhibition at 10 uM after 48 hr by coulter counter analysis; conditions: SF-539, 48 h, read-out: GI
[26] = test system: UACC-257; assay: Cytotoxicity against Homo sapiens (human) UACC257 cells assessed as growth inhibition at 10 uM after 48 hr by coulter counter analysis; conditions: UACC-257, 48 h, read-out: GI
[27] = test system: MDA-MB-468; assay: Cytotoxicity against Homo sapiens (human) MDA-MB-468 cells assessed as growth inhibition at 10 uM after 48 hr by coulter counter analysis; conditions: MDA-MB-468, 48 h, read-out: GI
[28] = test system: HOP-62; assay: Cytotoxicity against Homo sapiens (human) HOP62 cells assessed as growth inhibition at 10 uM after 48 hr by coulter counter analysis; conditions: HOP-62, 48 h, read-out: GI
[29] = test system: HT-29; assay: Cytotoxicity against Homo sapiens (human) HT-29 cells assessed as growth inhibition at 10 uM after 48 hr by coulter counter analysis; conditions: HT-29, 48 h, read-out: GI
[30] = test system: CAKI-1; assay: Cytotoxicity against Homo sapiens (human) Caki1 cells assessed as growth inhibition at 10 uM after 48 hr by coulter counter analysis; conditions: CAKI-1, 48 h, read-out: GI
[31] = test system: IGROV-1; assay: Cytotoxicity against Homo sapiens (human) IGROV1 cells assessed as growth inhibition at 10 uM after 48 hr by coulter counter analysis; conditions: IGROV-1, 48 h, read-out: GI
[32] = test system: NCI-H226; assay: Cytotoxicity against Homo sapiens (human) NCI-H226 cells assessed as growth inhibition at 10 uM after 48 hr by coulter counter analysis; conditions: NCI-H226, 48 h, read-out: GI
[33] = test system: SK-MEL-2; assay: Cytotoxicity against Homo sapiens (human) SK-MEL-2 cells assessed as growth inhibition at 10 uM after 48 hr by coulter counter analysis; conditions: SK-MEL-2, 48 h, read-out: GI
[34] = test system: A549; assay: Cytotoxicity against Homo sapiens (human) A549 cells assessed as growth inhibition at 10 uM after 48 hr by coulter counter analysis; conditions: A549, 48 h, read-out: GI

Row | SMILES | inhibition of growth at 10 µM [1] [%] | inhibition of growth at 10 µM [2] [%] | inhibition of growth at 10 µM [3] [%] | inhibition of growth at 10 µM [4] [%] | inhibition of growth at 10 µM [5] [%] | inhibition of growth at 10 µM [6] [%] | inhibition of growth at 10 µM [7] [%] | inhibition of growth at 10 µM [8] [%] | inhibition of growth at 10 µM [9] [%] | inhibition of growth at 10 µM [10] [%] | inhibition of growth at 10 µM [11] [%] | inhibition of growth at 10 µM [12] [%] | inhibition of growth at 10 µM [13] [%] | inhibition of growth at 10 µM [14] [%] | inhibition of growth at 10 µM [15] [%] | inhibition of growth at 10 µM [16] [%] | inhibition of growth at 10 µM [17] [%] | inhibition of growth at 10 µM [18] [%] | inhibition of growth at 10 µM [19] [%] | inhibition of growth at 10 µM [20] [%] | other results
1 | Clc1ccc(C2C3=C(CCCC3)Nc3ncn4nc(-c5ccccc5)nc4c32)cc1 (configuration not stated) | < 10 | 11.1 | < 10 | < 10 | < 10 | < 10 | < 10 | 10.5 | < 10 | < 10 | < 10 | 11 | < 10 | 10.2 | < 10 | < 10 | 40 | < 10 | 19.7 | < 10 | inhibition of growth at 10 µM [21]: < 10%; inhibition of growth at 10 µM [22]: < 10%; inhibition of growth at 10 µM [23]: 14.7%; inhibition of growth at 10 µM [24]: 11.5%; inhibition of growth at 10 µM [25]: < 10%; inhibition of growth at 10 µM [26]: < 10%; inhibition of growth at 10 µM [27]: 23.1%; inhibition of growth at 10 µM [28]: 16%; inhibition of growth at 10 µM [29]: 14.4%; inhibition of growth at 10 µM [30]: 12.4%; inhibition of growth at 10 µM [31]: < 10%; inhibition of growth at 10 µM [32]: 15.2%; inhibition of growth at 10 µM [33]: < 10%; inhibition of growth at 10 µM [34]: < 10%
2 | O=c1[nH]nnc2c1C(c1ccc(Cl)cc1)C1=C(CCCC1)N2 (configuration not stated) | < 10 | < 10 | < 10 | 10.9 | < 10 | < 10 | < 10 | < 10 | 13 | < 10 | < 10 | < 10 | < 10 | < 10 | < 10 | < 10 | 43.4 | < 10 | 10.2 | < 10 | inhibition of growth at 10 µM [21]: < 10%; inhibition of growth at 10 µM [22]: < 10%; inhibition of growth at 10 µM [23]: 13.3%; inhibition of growth at 10 µM [24]: 13.5%; inhibition of growth at 10 µM [25]: < 10%; inhibition of growth at 10 µM [26]: < 10%; inhibition of growth at 10 µM [27]: 13.3%; inhibition of growth at 10 µM [28]: < 10%; inhibition of growth at 10 µM [29]: < 10%; inhibition of growth at 10 µM [30]: 16.1%; inhibition of growth at 10 µM [31]: < 10%; inhibition of growth at 10 µM [32]: 10.3%; inhibition of growth at 10 µM [33]: < 10%; inhibition of growth at 10 µM [34]: < 10%
3 | COc1ccc(C2C3=C(CCCC3)Nc3ncn4nc(-c5ccc(O)cc5)nc4c32)cc1OC (configuration not stated) | < 10 | 12.8 | < 10 | < 10 | < 10 | < 10 | < 10 | 19.1 | 23.2 | < 10 | < 10 | 12.3 | < 10 | < 10 | < 10 | < 10 | 29.3 | < 10 | < 10 | < 10 | inhibition of growth at 10 µM [21]: < 10%; inhibition of growth at 10 µM [22]: < 10%; inhibition of growth at 10 µM [23]: 18.8%; inhibition of growth at 10 µM [24]: < 10%; inhibition of growth at 10 µM [25]: < 10%; inhibition of growth at 10 µM [26]: < 10%; inhibition of growth at 10 µM [27]: 21.4%; inhibition of growth at 10 µM [28]: < 10%; inhibition of growth at 10 µM [29]: < 10%; inhibition of growth at 10 µM [30]: < 10%; inhibition of growth at 10 µM [31]: < 10%; inhibition of growth at 10 µM [32]: 15.3%; inhibition of growth at 10 µM [33]: < 10%; inhibition of growth at 10 µM [34]: < 10%

Reference: ChEMBL document CHEMBL3045802, “Synthesis and in vitro antitumor activity of new quinoline, pyrimido[4,5-b]quinoline, [1,2,3]triazino[4,5-b]quinoline, and [1,2,4]triazolo[2,3:3,4]pyrimido[6,5-b]quinoline analogs” (2013)
